Measured values reported in PubChem BioAssay AID1919007 (Molecular Pharmacology Branch, DTP, NCI, 2023).

Test system: A498 complex spheroids with HUVEC/MSC, growth
Assay: Anticancer human tumor A498 cell line growth inhibition [AhR];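 also: seven day exposure starting three days after spheroid seeding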;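 as to viability, T/C: luminescence signal used as a surrogate for viable cells; luminescence viability scaled so 100% equals DMSO vehicle wells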
Details: for IC50: curve of first compound; for viability, T/C: stronger effect = lower value
Method in brief: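 Agents were dosed in half-log steps down from roughly clinical Cmax, or from 10 microM where Cmax was unknown, alone and with AhR antagonists. Read-out: percent test/control growth of tumor spheroids containing HUVEC and MSC stromal cells.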

[1] = second compound 0.1 µM, first compound 0.0316 µM
[2] = second compound 0.1 µM, first compound 0.1 µM
[3] = second compound 0.1 µM, first compound 0.316 µM
[4] = second compound 0.1 µM, first compound 1 µM
[5] = second compound 0.1 µM, first compound 3.16 µM
[6] = second compound 0.1 µM, first compound 10 µM
[7] = second compound 0.316 µM, first compound 0.0316 µM
[8] = second compound 0.316 µM, first compound 0.1 µM
[9] = second compound 0.316 µM, first compound 0.316 µM
[10] = second compound 0.316 µM, first compound 1 µM
[11] = second compound 0.316 µM, first compound 3.16 µM
[12] = second compound 0.316 µM, first compound 10 µM
[13] = second compound 1 µM, first compound 0.0316 µM
[14] = second compound 1 µM, first compound 0.1 µM
[15] = second compound 1 µM, first compound 0.316 µM
[16] = second compound 1 µM, first compound 1 µM
[17] = second compound 1 µM, first compound 3.16 µM
[18] = second compound 1 µM, first compound 10 µM
[19] = second compound 3.16 µM, first compound 0.0316 µM
[20] = second compound 3.16 µM, first compound 0.1 µM
[21] = second compound 3.16 µM, first compound 0.316 µM
[22] = second compound 3.16 µM, first compound 1 µM
[23] = second compound 3.16 µM, first compound 3.16 µM
[24] = second compound 3.16 µM, first compound 10 µM
[25] = second compound 10 µM, first compound 0.0316 µM
[26] = second compound 10 µM, first compound 0.1 µM
[27] = second compound 10 µM, first compound 0.316 µM
[28] = second compound 10 µM, first compound 1 µM
[29] = second compound 10 µM, first compound 3.16 µM
[30] = second compound 10 µM, first compound 10 µM

Row | Compound | IC50 (second compound 0.1 µM) | IC50 (second compound 0.316 µM) | IC50 (second compound 1 µM) | IC50 (second compound 3.16 µM) | IC50 (second compound 10 µM) | viability, T/C [1] | viability, T/C [2] | viability, T/C [3] | viability, T/C [4] | viability, T/C [7] | viability, T/C [8] | viability, T/C [9] | viability, T/C [10] | viability, T/C [13] | viability, T/C [14] | viability, T/C [15] | viability, T/C [16] | viability, T/C [19] | viability, T/C [20] | viability, T/C [21] | also measured
1 | CC(C)c1c(-c2ccccc2)nc2c(C#N)c[nH]n2c1=O + Cc1cncc(-c2nc(NCCc3c[nH]c4ccccc34)c3ncn(C(C)C)c3n2)c1 | > 10 µM | > 10 µM | > 10 µM | > 10 µM | < 0.0316 µM | 89.4% | 92.7% | 98.5% | 104% | 103% | 104% | 95.6% | 91% | 92.6% | 95.8% | 95.2% | 88.8% | 50.7% | 49.1% | 52.8% | viability, T/C [5]: 100%; viability, T/C [6]: 94.8%; viability, T/C [11]: 96.9%; viability, T/C [12]: 98.5%; viability, T/C [17]: 91.6%; viability, T/C [18]: 91.2%; viability, T/C [22]: 54.9%; viability, T/C [23]: 49.2%; viability, T/C [24]: 52.7%; viability, T/C [25]: 3%; viability, T/C [26]: 4.01%; viability, T/C [27]: 4.28%; viability, T/C [28]: 3.84%; viability, T/C [29]: 3.64%; viability, T/C [30]: 4.87%
2 | CC1COCCN1c1cc(-c2ccnn2C)c2ccnc(-c3ccn[nH]3)c2n1 (stereo not given) + Cc1cncc(-c2nc(NCCc3c[nH]c4ccccc34)c3ncn(C(C)C)c3n2)c1 | 0.111 µM | 0.129 µM | 0.105 µM | 0.0244 µM | < 0.00316 µM | 90.6% | 52.5% | 24.5% | 19.4% | 89% | 57.4% | 26% | 20.5% | 81.5% | 52.2% | 23.5% | 21.4% | 51.4% | 41.2% | 22.8% | viability, T/C (second compound 0.1 µM, first compound 0.00316 µM): 94.3%; viability, T/C (second compound 0.1 µM, first compound 0.01 µM): 102%; viability, T/C (second compound 0.316 µM, first compound 0.00316 µM): 98.5%; viability, T/C (second compound 0.316 µM, first compound 0.01 µM): 103%; viability, T/C (second compound 1 µM, first compound 0.00316 µM): 91.3%; viability, T/C (second compound 1 µM, first compound 0.01 µM): 96.8%; viability, T/C (second compound 3.16 µM, first compound 0.00316 µM): 49.4%; viability, T/C (second compound 3.16 µM, first compound 0.01 µM): 50.1%; viability, T/C [22]: 19.5%; viability, T/C (second compound 10 µM, first compound 0.00316 µM): 3.71%; viability, T/C (second compound 10 µM, first compound 0.01 µM): 4.4%; viability, T/C [25]: 6.04%; viability, T/C [26]: 3.64%; viability, T/C [27]: 4.9%; viability, T/C [28]: 10.9%
3 | COc1ccc([C@@H](O)c2cc(-c3ncnc4cc(N5CCOCC5)ccc34)c(F)cc2Cl)nn1 + Cc1cncc(-c2nc(NCCc3c[nH]c4ccccc34)c3ncn(C(C)C)c3n2)c1 | 0.477 µM | 0.549 µM | 0.434 µM | < 0.0316 µM | < 0.0316 µM | 89.2% | 86.9% | 59% | 30.6% | 89.5% | 85.9% | 67% | 31.1% | 80.6% | 85.1% | 57.5% | 26.6% | 45.1% | 49.3% | 39.3% | viability, T/C [5]: 19.1%; viability, T/C [6]: 10.1%; viability, T/C [11]: 17.7%; viability, T/C [12]: 11.8%; viability, T/C [17]: 17.5%; viability, T/C [18]: 12.4%; viability, T/C [22]: 25%; viability, T/C [23]: 15.4%; viability, T/C [24]: 11.6%; viability, T/C [25]: 3.91%; viability, T/C [26]: 4.22%; viability, T/C [27]: 4.26%; viability, T/C [28]: 3.54%; viability, T/C [29]: 3.86%; viability, T/C [30]: 8.65%
